Measured values from ChEMBL document CHEMBL3525964 (Drug Metab Dispos, 2012).

Key:
[1] = Drug level in urine of human treated with [14C}LY2452473 at 15 mg, po administered as single dose by LC-MS/MS method; format: ADME, organism-based; conditions: in vivo
[2] = tested on: Plasma; assay: Drug level in plasma of human treated with [14C}LY2452473 at 15 mg, po administered as single dose by LC-MS/MS method; format: ADME, organism-based; conditions: in vivo
[3] = tested on: Plasma; assay: Drug level in human plasma treated with [14C}LY2452473 at 15 mg, po after 8 hrs administered as single dose by HPLC analysis; format: ADME, organism-based; conditions: in vivo
[4] = tested on: Plasma; assay: Drug level in human plasma treated with [14C}LY2452473 at 15 mg, po after 1 hr administered as single dose by HPLC analysis; format: ADME, organism-based; conditions: in vivo
[5] = Drug level in feces of human treated with [14C}LY2452473 at 15 mg, po administered as single dose by LC-MS/MS method; format: ADME, organism-based; conditions: in vivo
[6] = tested on: Plasma; assay: Drug level in human plasma treated with [14C}LY2452473 at 15 mg, po after 2 hrs administered as single dose by HPLC analysis; format: ADME, organism-based; conditions: in vivo
[7] = tested on: Plasma; assay: Drug level in human plasma treated with [14C}LY2452473 at 15 mg, po after 24 hrs administered as single dose by HPLC analysis; format: ADME, organism-based; conditions: in vivo
[8] = tested on: Plasma; assay: Drug level in human plasma treated with [14C}LY2452473 at 15 mg, po after 4 hrs administered as single dose by HPLC analysis relative to total radioactivity; format: ADME, organism-based; conditions: in vivo
[9] = tested on: Plasma; assay: Drug level in human plasma treated with [14C}LY2452473 at 15 mg, po after 4 hrs administered as single dose by HPLC analysis; format: ADME, organism-based; conditions: in vivo
[10] = tested on: Plasma; assay: Drug level in human plasma treated with [14C}LY2452473 at 15 mg, po after 48 hrs administered as single dose by HPLC analysis; format: ADME, organism-based; conditions: in vivo
[11] = Total drug excretion in human treated with [14C}LY2452473 at 15 mg, po administered as single dose by HPLC analysis; format: ADME, organism-based; conditions: in vivo, read-out: Drug excretion
[12] = Drug excretion in urine of human treated with [14C}LY2452473 at 15 mg, po administered as single dose by HPLC analysis; format: ADME, organism-based; conditions: read-out: Drug excretion
[13] = Drug metabolism in human urine assessed as (2S)-2-amino-4-(2-pyridylmethyl)-2,3-dihydro-1H-cyclopenta[b]indole-7-carbonitrile formation at 15 mg, po administered as single dose by LC-MS/MS method; format: ADME, organism-based; conditions: in vivo
[14] = Drug metabolism in human feces assessed as N-[(2S)-7-cyano-4-(2-pyridylmethyl)-2,3-dihydro-1H-cyclopenta[b]indol-2-yl]acetamide formation at 15 mg, po administered as single dose by LC-MS/MS method; format: ADME, organism-based; conditions: in vivo
[15] = tested on: Plasma; assay: Drug metabolism in human plasma assessed as N-[(2S)-7-cyano-4-(2-pyridylmethyl)-2,3-dihydro-1H-cyclopenta[b]indol-2-yl]acetamide formation at 15 mg, po administered as single dose by LC-MS/MS method; format: ADME, organism-based; conditions: in vivo
[16] = tested on: Homo sapiens; assay: Tlast in human assessed as total radioactivity at 15 mg, po administered as single dose by liquid scintillation counting method; format: ADME, organism-based; conditions: in vivo
[17] = Drug recovery in human urine at 15 mg, po administered as single dose after 0 to 312 hrs by liquid scintillation counting method; format: ADME, organism-based; conditions: in vivo
[18] = tested on: Plasma; assay: Drug metabolism in human plasma assessed as [(1R)-2-hydroxy-1-methyl-ethyl]N-[(2S)-7-cyano-4-(2-pyridylmethyl)-2,3-dihydro-1H-cyclopenta[b]indol-2-yl]carbamate formation at 15 mg, po administered as single dose by LC-MS/MS method; format: ADME, organism-based; conditions: in vivo
[19] = Drug metabolism in human feces assessed as [(1R)-2-hydroxy-1-methyl-ethyl]N-[(2S)-7-cyano-4-(2-pyridylmethyl)-2,3-dihydro-1H-cyclopenta[b]indol-2-yl]carbamate formation at 15 mg, po administered as single dose by LC-MS/MS method; format: ADME, organism-based; conditions: in vivo
[20] = Drug metabolism in human urine assessed as N-[(2S)-7-cyano-4-(2-pyridylmethyl)-2,3-dihydro-1H-cyclopenta[b]indol-2-yl]acetamide formation at 15 mg, po administered as single dose by LC-MS/MS method; format: ADME, organism-based; conditions: in vivo
[21] = Drug metabolism in human feces assessed as isopropyl(2S)-7-cyano-3a,8b-dihydroxy-4-(pyridin-2-ylmethyl)-1,2,3,3a,4,8b-hexahydrocyclopenta[b]indol-2-ylcarbamate formation at 15 mg, po administered as single dose by LC-MS/MS method; format: ADME, organism-based; conditions: in vivo
[22] = Drug metabolism in human feces assessed as LY2452473 formation at 15 mg, po administered as single dose by LC-MS/MS method; format: ADME, organism-based; conditions: in vivo
[23] = tested on: Plasma; assay: Drug metabolism in human plasma assessed as isopropyl N-[(2S,3S)-7-cyano-3-hydroxy-4-(2-pyridylmethyl)-2,3-dihydro-1H-cyclopenta[b]indol-2-yl]carbamate formation at 15 mg, po administered as single dose by LC-MS/MS method; format: ADME, organism-based; conditions: in vivo
[24] = Drug metabolism in human feces assessed as isopropyl N-[(2S,3S)-7-cyano-3-hydroxy-4-(2-pyridylmethyl)-2,3-dihydro-1H-cyclopenta[b]indol-2-yl]carbamate formation at 15 mg, po administered as single dose by LC-MS/MS method; format: ADME, organism-based; conditions: in vivo
[25] = tested on: Plasma; assay: Drug metabolism in human plasma assessed as isopropyl(2S)-7-cyano-3a,8b-dihydroxy-4-(pyridin-2-ylmethyl)-1,2,3,3a,4,8b-hexahydrocyclopenta[b]indol-2-ylcarbamate formation at 15 mg, po administered as single dose by LC-MS/MS method; format: ADME, organism-based; conditions: in vivo
[26] = tested on: Plasma; assay: Drug level in human plasma at 15 mg, po after 48 hrs administered as single dose by HPLC analysis; format: ADME, organism-based; conditions: in vivo, pooled result: one value given for 5 cell lines, strains, targets or settings
[27] = tested on: Homo sapiens; assay: AUC (0 to time) in human assessed as total radioactivity at 15 mg, po administered as single dose by liquid scintillation counting method; format: ADME, organism-based, Plasma; conditions: in vivo
[28] = tested on: Homo sapiens; assay: Elimination half life in human assessed as total radioactivity at 15 mg, po administered as single dose by liquid scintillation counting method; format: ADME, organism-based; conditions: in vivo
[29] = Drug metabolism in human urine assessed as isopropyl(2S)-7-cyano-3a,8b-dihydroxy-4-(pyridin-2-ylmethyl)-1,2,3,3a,4,8b-hexahydrocyclopenta[b]indol-2-ylcarbamate formation at 15 mg, po administered as single dose by LC-MS/MS method; format: ADME, organism-based; conditions: in vivo
[30] = tested on: Homo sapiens; assay: Drug recovery in human at 15 mg, po administered as single dose after 0 to 312 hrs by liquid scintillation counting method; format: ADME, organism-based; conditions: in vivo
[31] = tested on: Plasma; assay: Drug metabolism in human plasma assessed as (2S)-2-amino-4-(2-pyridylmethyl)-2,3-dihydro-1H-cyclopenta[b]indole-7-carbonitrile formation at 15 mg, po administered as single dose by LC-MS/MS method; format: ADME, organism-based; conditions: in vivo
[32] = Drug metabolism in human urine assessed as [(1R)-2-hydroxy-1-methyl-ethyl]N-[(2S)-7-cyano-4-(2-pyridylmethyl)-2,3-dihydro-1H-cyclopenta[b]indol-2-yl]carbamate formation at 15 mg, po administered as single dose by LC-MS/MS method; format: ADME, organism-based; conditions: in vivo
[33] = tested on: Plasma; assay: Drug level in human plasma at 15 mg, po after 24 hrs administered as single dose by HPLC analysis; format: ADME, organism-based; conditions: in vivo
[34] = Drug metabolism in human feces assessed as (2S)-2-amino-4-(2-pyridylmethyl)-2,3-dihydro-1H-cyclopenta[b]indole-7-carbonitrile formation at 15 mg, po administered as single dose by LC-MS/MS method; format: ADME, organism-based; conditions: in vivo
[35] = tested on: Homo sapiens; assay: Tmax in human assessed as total radioactivity at 15 mg, po administered as single dose by liquid scintillation counting method; format: ADME, organism-based; conditions: in vivo
[36] = Drug metabolism in human urine assessed as LY2452473 formation at 15 mg, po administered as single dose by LC-MS/MS method; format: ADME, organism-based; conditions: in vivo
[37] = tested on: Homo sapiens; assay: AUC (0 to infinity) in human assessed as total radioactivity at 15 mg, po administered as single dose by liquid scintillation counting method; format: ADME, organism-based, Plasma; design: dose 15 mg, route oral, time infinity; conditions: in vivo
[38] = tested on: Plasma; assay: Drug metabolism in human plasma assessed as LY2452473 formation at 15 mg, po administered as single dose by LC-MS/MS method; format: ADME, organism-based; conditions: in vivo
[39] = Drug recovery in human feces at 15 mg, po administered as single dose after 0 to 312 hrs by liquid scintillation counting method; format: ADME, organism-based; conditions: in vivo
[40] = Drug metabolism in human urine assessed as isopropyl N-[(2S,3S)-7-cyano-3-hydroxy-4-(2-pyridylmethyl)-2,3-dihydro-1H-cyclopenta[b]indol-2-yl]carbamate formation at 15 mg, po administered as single dose by LC-MS/MS method; format: ADME, organism-based; conditions: in vivo

Structure (SMILES): C[C@H](CO)OC(=O)N[C@H]1Cc2c(n(Cc3ccccn3)c3ccc(C#N)cc23)C1
- Drug metabolism [1]: metabolite_detected
- Drug metabolism [2]: metabolite_detected
- Drug uptake [3]: 6.94%
- Drug uptake [4]: 0%
- Drug metabolism [5]: metabolite_detected
- Drug uptake [6]: 0.89%
- Drug uptake [7]: 0%
- Drug uptake [8]: 2.3%
- Drug uptake [9]: 2.2%
- Drug uptake [10]: 0%

Structure (SMILES): N#Cc1ccc2c(c1)c1c(n2Cc2ccccn2)C[C@@H](N)C1
- Drug metabolism [1]: metabolite_detected
- Drug metabolism [2]: metabolite_detected
- Drug metabolism [5]: metabolite_detected
- dose excreted [11]: 3.39%
- dose excreted [12]: 3.39%

Structure (SMILES): CC(C)OC(=O)N[C@H]1CC2(O)c3cc(C#N)ccc3N(Cc3ccccn3)C2(O)C1 (some centres not stated)
- Drug metabolism [1]: metabolite_detected
- Drug metabolism [2]: metabolite_detected
- Drug metabolism [5]: metabolite_detected

Structure (SMILES): C[C@@H](CO)OC(=O)N[C@H]1Cc2c(n(Cc3ccccn3)c3ccc(C#N)cc23)C1
- Drug uptake [3]: 0%
- Drug uptake [4]: 0%
- Drug uptake [6]: 0%
- Drug uptake [7]: 0%
- Drug uptake [9]: 0.97%
- Drug uptake [10]: 0%

Structure (SMILES): CC(=O)N[C@H]1Cc2c(n(Cc3ccccn3)c3ccc(C#N)cc23)C1
- Drug metabolism [1]: metabolite_detected
- Drug metabolism [2]: metabolite_detected
- Drug uptake [3]: 10.48%
- Drug uptake [4]: 0%
- Drug metabolism [5]: metabolite_detected
- Drug uptake [6]: 0%
- Drug uptake [7]: 28.48%
- Drug uptake [8]: 20.6%
- Drug uptake [9]: 1.74%
- Drug uptake [10]: 38.68%

Structure (SMILES): CC(C)OC(=O)N[C@H]1Cc2c(n(Cc3ccccn3)c3ccc(C#N)cc23)[C@H]1O
- Drug metabolism [1]: metabolite_detected
- Drug metabolism [2]: metabolite_detected
- Drug uptake [3]: 36.62%
- Drug uptake [4]: 21.9%
- Drug metabolism [5]: metabolite_detected
- Drug uptake [6]: 22.58%
- Drug uptake [7]: 37.11%
- Drug uptake [8]: 34.7%
- Drug uptake [9]: 24.24%
- Drug uptake [10]: 30.05%

Structure (SMILES): CC(C)OC(=O)N[C@H]1Cc2c(n(Cc3ccccn3)c3ccc([14C]#N)cc23)C1
- Drug metabolism [13]: metabolite_detected
- Drug metabolism [14]: metabolite_detected
- Drug metabolism [15]: metabolite_detected
- Tlast [16]: 204 h
- Drug recovery [17]: 47.9%
- Drug metabolism [18]: metabolite_detected
- Drug metabolism [19]: metabolite_detected
- Drug metabolism [20]: metabolite_detected
- Drug metabolism [21]: metabolite_detected
- Drug metabolism [22]: metabolite_detected
- Drug metabolism [23]: metabolite_detected
- Drug metabolism [24]: metabolite_detected
- Drug metabolism [25]: metabolite_detected
- Drug uptake [26]: 96.4%
- AUCt [27]: 7210 ng·h/mL
- beta t1/2 [28]: 51 h
- Drug metabolism [29]: metabolite_detected
- Drug recovery [30]: 94.5%
- Drug metabolism [31]: metabolite_detected
- Drug metabolism [32]: metabolite_detected
- Drug uptake [33]: 94.41%
- Drug metabolism [34]: metabolite_detected
- Tmax [35]: 3 h
- Drug metabolism [36]: metabolite_detected
- AUC [37]: 7750 ng·h/mL
- Drug metabolism [38]: metabolite_detected
- Drug recovery [39]: 46.6%
- Drug metabolism [40]: metabolite_detected
